Data set [1] in a line: Cytotoxicity against rabbit platelet assessed as LDH release. On the set-up: concentration or dose not given beside the values. It counts as cell-based, Oryctolagus cuniculus.
The subject of data set [2] is Platelet. Kind of data set: Inhibition of arachidonic acid-induced platelet aggregation in citreated rabbit platelet-rich plasma by turbidimetric method. It counts as functional. As to conditions: Oryctolagus cuniculus.
In data set [3] the test system is Platelet. Nature of the data set: Inhibition of thrombin-induced platelet aggregation in citreated rabbit platelet-rich plasma by turbidimetric method. The following applies: Oryctolagus cuniculus. It counts as functional.
The subject of data set [4] is Platelet. Kind of data set: Inhibition of […]-induced platelet aggregation in citreated rabbit platelet-rich plasma by turbidimetric method. It counts as functional. As to conditions: Oryctolagus cuniculus.
The subject of data set [5] is Platelet. Nature of the data set: Inhibition of U46619-induced platelet aggregation in citreated rabbit platelet-rich plasma by turbidimetric method. The following applies: Oryctolagus cuniculus. It counts as functional.
Data set [6] relates to Raji. Kind of data set: Inhibition of 12-O-tetradecanoylphorbol-13-acetate induced EBV-early antigen activation in human Raji cells assessed as EA activation at 500 molar ratio after 48 hrs relative to TPA. It counts as cell-based. The following applies: human gammaherpesvirus 4. On the set-up: scale not given: the % may be the effect or the level left.
The subject of data set [7] is Raji. Nature of the data set: Inhibition of 12-O-tetradecanoylphorbol-13-acetate induced EBV-early antigen activation in human Raji cells assessed as EA activation at 1000 molar ratio after 48 hrs relative to TPA. On the set-up: scale not given: the % may be the effect or the level left. It counts as cell-based. As to conditions: human gammaherpesvirus 4.
Data set [8] relates to Raji. Kind of data set: Inhibition of 12-O-tetradecanoylphorbol-13-acetate induced EBV-early antigen activation in human Raji cells assessed as EA activation at 100 molar ratio after 48 hrs relative to TPA. It counts as cell-based. On the set-up: scale not given: the % may be the effect or the level left. The following applies: human gammaherpesvirus 4.
Data set [9] deals with Raji. Nature of the data set: Inhibition of 12-O-tetradecanoylphorbol-13-acetate induced EBV-early antigen activation in human Raji cells assessed as EA activation at 10 molar ratio after 48 hrs relative to TPA. It counts as cell-based. On the set-up: scale not given: the % may be the effect or the level left. The following applies: human gammaherpesvirus 4.
The nature of data set [10]: Cytotoxicity against human Raji cells assessed as cell viability at 1000 molar ratio by trypan blue assay. It counts as cell-based. The following applies: read-out: Activity.

Each structure is given as a SMILES string. Where only a bound is given, the exact number is not on record here.

Consider `CC(C)=CCC(O)[C@@](C)(O)[C@H]1CC[C@]2(C)[C@@H]1CC[C@@H]1[C@@]3(C)CC[C@H](O[C@@H]4O[C@H](CO)[C@@H](O)[C@H](O)[C@H]4O[C@@H]4O[C@@H](C)[C@H](O)[C@@H](O)[C@H]4O)C(C)(C)[C@@H]3C[C@H](O)[C@]12C` (some centres undefined) [SAPINMUSAPONIN A], for which the Activity in data set [1] was found to be 62.3%. Also, the IC50 in the data set on Platelet [2], in the data set on Platelet [3], with Platelet [4] and with Platelet [5] was above 100 µM throughout.

Take `CC(C)=CC(O)C(O)[C@@](C)(O)[C@H]1CC[C@]2(C)[C@@H]1CC[C@@H]1[C@@]3(C)CC[C@H](O[C@@H]4O[C@H](CO)[C@@H](O)[C@H](O)[C@H]4O[C@@H]4O[C@@H](C)[C@H](O)[C@@H](O)[C@H]4O)C(C)(C)[C@@H]3C[C@H](O)[C@]12C` (some centres undefined) [SAPINMUSAPONIN B]: the Activity in [1] was found to be 62.3%. Moreover, the IC50 with Platelet [2], in the data set with Platelet [3], in the data set on Platelet [4] and with Platelet [5] was above 100 µM each time.

As to `C[C@@H]1O[C@@H](O[C@H]2[C@H](O[C@H]3CC[C@]4(C)[C@H]5CC[C@@H]6[C@@H]([C@](C)(O)C(O)/C=C/C(C)(C)O)CC[C@@]6(C)[C@]5(C)[C@@H](O)C[C@H]4C3(C)C)O[C@H](CO)[C@@H](O)[C@@H]2O)[C@H](O)[C@H](O)[C@H]1O` (some centres undefined) [SAPINMUSAPONIN C], in [1], the Activity was 62.3%. Besides, the IC50 with Platelet [2], with Platelet [3], with Platelet [4] and with Platelet [5] was above 100 µM in each case.

Turning to `COC(C)(C)/C=C/C(O)[C@@](C)(O)[C@H]1CC[C@]2(C)[C@@H]1CC[C@@H]1[C@@]3(C)CC[C@H](O[C@@H]4O[C@H](CO)[C@@H](O)[C@H](O)[C@H]4O[C@@H]4O[C@@H](C)[C@H](O)[C@@H](O)[C@H]4O)C(C)(C)[C@@H]3C[C@H](O)[C@]12C` (some centres undefined) [SAPINMUSAPONIN D], the Activity in [1] was 62.3%. In addition, the IC50 with Platelet [2], with Platelet [3], in the data set with Platelet [4] and with Platelet [5] was above 100 µM each time.

For the compound `CO[C@H]1O[C@H](C=C(C)C)C[C@H]1[C@@H]1CC[C@]2(C)C3=CC[C@H]4C(C)(C)[C@@H](O[C@@H]5O[C@H](CO[C@@H]6O[C@@H](C)[C@H](O)[C@@H](O)[C@H]6O)[C@@H](O)[C@H](O)[C@H]5O)CC[C@]4(C)[C@H]3CC[C@@]12C` [SAPINMUSAPONIN F], the Activity was below 10% in data set [1]; 53.6% in the data set on Raji [6]; 9.1% in the data set with Raji [7]; 82.6% in the data set with Raji [8]; 100% in the data set with Raji [9]. In addition, the IC50 in the data set on Platelet [2] came to 6.7 µM; in the data set on Platelet [3], 8.4 µM; in the data set on Platelet [4], 7.7 µM; in the data set on Platelet [5], 3.4 µM. Further, the viability at 1000 molar ratio in data set [10] came to 60%.

Take `CO[C@@H]1O[C@H](C=C(C)C)C[C@H]1[C@@H]1CC[C@]2(C)C3=CC[C@H]4C(C)(C)[C@@H](O[C@@H]5O[C@H](CO[C@@H]6O[C@@H](C)[C@H](O)[C@@H](O)[C@H]6O)[C@@H](O)[C@H](O)[C@H]5O)CC[C@]4(C)[C@H]3CC[C@@]12C` [SAPINMUSAPONIN G]: the Activity was below 10% in data set [1]; 53.9% in the data set with Raji [6]; 9.7% in the data set with Raji [7]; 83.7% with Raji [8]; 100% in the data set on Raji [9]. Further, the IC50 came out at 12.5 µM in the data set on Platelet [2], 8.9 µM with Platelet [3], 13.5 µM in the data set on Platelet [4] and 5.4 µM in the data set on Platelet [5]. In data set [10], the viability at 1000 molar ratio was 60%.

Consider `CO[C@@H]1O[C@H](C=C(C)C)C[C@H]1[C@@H]1CC[C@]2(C)C3=CC[C@H]4C(C)(C)[C@@H](O[C@@H]5O[C@H](CO)[C@@H](O)[C@H](O)[C@H]5O[C@@H]5O[C@@H](C)[C@H](O)[C@@H](O)[C@H]5O)CC[C@]4(C)[C@H]3CC[C@@]12C` [SAPINMUSAPONIN H], for which the Activity was below 10% in [1]; 54.4% with Raji [6]; 11% in the data set on Raji [7]; 83.7% in the data set with Raji [8]; 100% with Raji [9]. The IC50 in the data set on Platelet [2] was 71.5 µM; in the data set with Platelet [3], above 100 µM; with Platelet [4], 4.6 µM; with Platelet [5] it was 16.3 µM. The viability at 1000 molar ratio in data set [10] was 60%.

As to `CO[C@H]1O[C@H](C=C(C)C)C[C@H]1[C@@H]1CC[C@]2(C)C3=CC[C@H]4C(C)(C)[C@@H](O[C@@H]5O[C@H](CO[C@@H]6O[C@@H](C)[C@H](O)[C@@H](O)[C@H]6O)[C@@H](O)[C@H](O)[C@H]5O[C@@H]5O[C@@H](C)[C@H](O)[C@@H](O)[C@H]5O)CC[C@]4(C)[C@H]3CC[C@@]12C` [SAPINMUSAPONIN I], the Activity in data set [1] was below 10%; in the data set with Raji [6] it was 60.5%; with Raji [7], 14.3%; with Raji [8], 82.6%; in the data set with Raji [9], 100%. Moreover, the IC50 in the data set with Platelet [2] is 2.3 µM; in the data set with Platelet [3], 41.4 µM; in the data set with Platelet [4], 11.8 µM. Besides, the viability at 1000 molar ratio in data set [10] was found to be 60%.

The values are drawn from ChEMBL document CHEMBL1157941, “Sapinmusaponins F-J, bioactive tirucallane-type saponins from the galls of Sapindus mukorossi” (J Nat Prod, 2006).
